Entries after “also recorded” stand apart in the source; their conditions may differ.

Series [1] relates to H1 hESCs. Nature of the series: Proaerolysin-induced cell death, Crystal Violet staining / kill-curve. The class given is cell-based, human. The method, then: (§1) FIG. 8. Development of an efficient counterselection strategy. a, Lack of paracrine activity in GCV/TK bystander effect. Parental H1 cells were grown for 7 days with regular StemFlex medium with or without 0.1 μM GCV or with a 1:1 mixture of regular medium and conditioned medium harvested from LP-TK cells grown with or without 0.1 μM GCV. […] Bars represent mean+S.D. for technical replicates (n=3). b, PCR genotyping for parental (Par), ΔPIGA and LP-PIGA H1 hESCs. Primers target a region of the PIGA gene (WT PIGA), the novel junction formed following PIGA deletion (ΔPIGA), a region of HPRT1 gene (WT HPRT1) and the two novel junctions formed between LP-PIGA and the surrounding genome (LP L and R Jx). c, Proaerolysin-induced cell death. The indicated H1 hESCs were treated with 0.5 nM proaerolysin for 1 day and stained with Crystal Violet. Proaerolysin resistance is conferred by PIGA inactivation and restored by hmPIGA expression. d, Rapid proaerolysin-induced cell death. e, Proaerolysin kill-curve for H1 hESCs and BL6xCAST mESCs. Cells were treated with proaerolysin for 1 day and assayed 3 days (H1) or 1 day (BL6xCAST) post treatment. Experiment was conducted in replicates (H1, n=4; BL6xCAST, n=2) and data are represented as mean±S.D. f, CD59/HLA flow cytometry of H1 hESCs. Note the complete loss of CD59, a GPI-anchored protein, in ΔPIGA cells, and the retention of HLA, a non-GPI-anchored membranal protein. g, Flow cytometry of H1 hESCs showing the reconstitution of CD59 expression in LP-PIGA cells.
Integration of a landing pad expressing a human mini PIGA gene (hmPIGA) to the HPRT1 locus resensitized H1 ΔPIGA hESCs to proaerolysin and restored CD59 expression (FIG. 7c, FIG. 7g). Importantly, rare ΔPIGA H1 hESCs were efficiently isolated when co-cultured with parental H1 cells by applying proaerolysin selection (FIG. 2d). Similarly, the Piga/proaerolysin counterselection strategy was used to efficiently isolate rare mESCs (FIG. 2e).

Series [2] relates to H1 hESCs. Briefly: TK/GCV counterselection in co-cultures of TK-negative and TK-positive (LP-TK) cells, live cells by PrestoBlue. The settings on record: 1 μM GCV for 4 days. The format is cell-based, human. The protocol:
FIG. 2. Development of an efficient counterselection strategy. a, Parental (TK−) and LP-TK (TK+) H1 hESCs were co-cultured at the indicated ratios, treated with 1 μM, GCV for 4 days, and assayed for the number of live cells using PrestoBlue. Cell counts are shown relative to unmixed parental cells. Bars show mean+S.D. (n=2). b, GCV enters TK+ cells and is metabolized into the toxic membrane-impermeable compound GCV-TP, which diffuses into neighboring cells and induces bystander cell death in TK-cells. c, Big-IN counterselection strategy using PIGA/Proaerolysin. d, Parental and ΔPIGA H1 hESCs co-cultured at the indicated ratios for three days were treated with 1 nM proaerolysin for 1 day and stained with Crystal Violet 3 days later. e, Parental and ΔPiga BL6xCAST mESCs were co-cultured at the indicated ratios for one day, treated with 1 nM proaerolysin for 1 day, stained with Crystal Violet 5 days later, and colonies were counted. Bars represent mean+S.D. (n=2).
Delivery of large DNA through cassette exchange is an infrequent event, requiring selection to obtain practical efficiency. The HSV1-TK gene is a widely used counterselectable marker that renders cells sensitive to GCV by converting it to the toxic metabolite GCV-triphosphate (GCV-TP), which inhibits DNA synthesis and leads to cell death^38. […]

The subject of the next series is Parental H1 cells. Nature of the series: GCV/TK bystander paracrine test: parental cells in medium or LP-TK conditioned medium with GCV. The class given is cell-based, human. The note with it: 0.1 μM GCV, 7 days, also when preincubated with LP-TK cells (conditioned medium). The protocol:
as §1, with “Note the complete loss of CD59, a GPI-anchored protein, in ΔPIGA cells, and the retention of HLA, a non-GPI-anchored membranal protein. g, Flow cytometry of H1 hESCs showing the reconstitution of CD59 expression in LP-PIGA cells.” left out

Series [3] deals with H1 LP-TK hESCs (HSV1-ΔTK). Briefly: GCV kill-curve assay, LP-TK clone 581 vs parental cells, live cells by PrestoBlue. The settings on record: indicated GCV concentrations for 3 days.
Description: Bars represent mean+S.D. of technical replicates (n=3). c, H1 LP-TK clone 581 and non-engineered parental H1 hESCs were treated with the indicated concentrations of GCV for 3 days, followed by quantification of live cells using PrestoBlue. Data were normalized to the value of untreated cells.
PrestoBlue (ThermoFisher Scientific A13262) staining was performed according to the manufacturer's protocol.

With “proaerolysin: a bacterial prototoxin; perforates the plasma membrane upon binding to GPI anchors on the cell surface”, the “sensitivity of H1 ΔPIGA hESCs after landing pad expressing hmPIGA at HPRT1” value in the series with H1 hESCs [1] (LP-PIGA H1 hESCs) is reported as “resensitized”. Besides, the “killing of parental H1 hESCs” value in the series with H1 hESCs [1] (parental H1 hESCs) is “efficiently killed”. In the series on H1 hESCs [1] (ΔPIGA cells (PIGA deleted using CRISPR/Cas9)), the “sensitivity of ΔPIGA H1 hESCs” value is listed as “entirely resistant”.
Turning to `Nc1nc(O)c2ncn(COC(CO)CO)c2n1` [GCV, Ganciclovir], the “TK-negative cells that died when mixed with TK-positive cells” value in the series with H1 hESCs [2] (1:1 ratio TK-negative:TK-positive) is given as “More than 80%”. Besides, in the series with H1 hESCs [2] (1:10 ratio TK-negative:TK-positive), the “death of TK-negative cells when mixed with TK-positive cells” value is given as “all died”. The “effect on parental (TK-negative) H1 cells” value in the series on Parental H1 cells is reported as “no effect”. Further, the “cytotoxicity to LP-TK (HSV1-ΔTK expressing) H1 hESCs” value in series [3] is recorded as “kills LP-TK cells; also recorded: Robust cytotoxic activity”.

The values above are taken from patent US20230392170A1, “BIG-IN: A VERSATILE PLATFORM FOR LOCUS-SCALE GENOME REWRITING AND VERIFICATION” (New York University, priority 2020, published 2023).
